Test results taken from patent US5593970A, “Heterocyclic anthracycline analogs” (priority 1994, dated 1997).
Structures can show the parent of a compound that is named as a salt. Where two headings read alike, the source gives them in different places.

How the values were obtained:
Experiment in all cases: Microculture tetrazolium assay
Type in all cases: cell-based
SKOV3 = conditions: Homo sapiens, SK-OV-3, SKOV3
LOX = system: LOX
T47D = conditions: Homo sapiens
HT29 = conditions: Homo sapiens, HT-29, HT29
SKVLB = conditions: for VLB/OV3: IC50 ratio SKVLB/SKOV3; for IC50: SKVLB

Row | SMILES | IC50 (SKOV3; read-out: IC50) [µM] | IC50 (LOX; read-out: IC50) [µM] | IC50 (T47D; read-out: IC50) [µM] | IC50 (HT29; read-out: IC50) [µM] | VLB/OV3 (SKVLB) | IC50 (SKVLB; read-out: IC50) [µM] | IC50 (HT29) [µM] | IC50 (SKOV3) [µM] | IC50 (LOX) [µM] | IC50 (T47D) [µM] | IC50 (SKVLB) [µM]
1 | CC(=O)O[C@@H]1[C@H](C)O[C@@H](O[C@@H]2O[C@@H](C(C)=O)CC3=C2C(=O)c2cc4ccccc4c(O)c2C3=O)C[C@@H]1OC(C)=O [BCH-1166, (1'S,1S,3R)-methyl-(6-hydroxy-1-(2',3',4',6'-tetradeoxy-3',4'-diacetyl-L-lyxohexopyranose)-5,12-dioxo-3,4,5,12-tetrahydroanthraceno-[2,3-c]pyran-3-yl) ketone] | 24.4 | 30.5 | 31.4 | 12.5 | 2.08 | 50.8 |  |  |  |  | 
2 | CC(=O)C1CC2=C(C(=O)c3cc4ccccc4c(O)c3C2=O)C(O)S1 (stereo not drawn) [BCH-1167, Trans-3-aceto-1,6-hydroxy-1,2,3,4,5,12-hexahydro-2-(sulfur)naphthacene-5,12-dione and cis-3-aceto-1,6-hydroxy-1,2,3,4,5,12-hexahydro-2-(sulfur)naphthacene-5,12-dione] | > 100 | > 100 | > 100 | > 100 |  | > 100 |  |  |  |  | 
3 | C=CC1CC2=C(C(=O)c3cc4ccccc4c(O)c3C2=O)C(O[C@H]2C[C@H](NC(=O)C(F)(F)F)[C@H](O)[C@H](C)O2)O1 (stereo partly shown) [BCH-1168] | 88 | 100 | 84.4 | 100 | 1.07 | 94.2 |  |  |  |  | 
4 | C[C@@H]1O[C@@H](O[C@H]2O[C@H](C(=O)CO)CC3=C2C(=O)c2cc4ccccc4c(O)c2C3=O)C[C@H](NC(=O)C(F)(F)F)[C@@H]1O [BCH-1175, (1', S,1R,3S)-1,2,3,4,5,12-hexahydro-6-hydroxy-3-hydroxy-aceto-1-N-trifluoroacetyl-L-daunosamine-(2-oxo) naphthacene-5, 12-dione] | > 100 | > 100 | > 100 | > 100 |  | > 100 |  |  |  |  | 
5 | CC(=O)OCC1([C@@H]2CC3=C(C(=O)c4c(cc5ccccc5c4OC(C)=O)C3=O)[C@@H](O[C@H]3C[C@H](NC(=O)C(F)(F)F)[C@H](O)[C@H](C)O3)O2)OCCCO1 [BCH-1178] | 6.93 | 12.3 | 7.06 |  | 1.85 | 12.8 | 5.64 |  |  |  | 
6 | CC(=O)OCC1(C2CC3=C(C(=O)c4c(cc5ccccc5c4OC(C)=O)C3=O)C(O[C@H]3C[C@H](NC(=O)C(F)(F)F)[C@H](O)[C@H](C)O3)O2)OCCCO1 (stereo partly shown) [BCH-1179] | 5.25 | 10.9 | 4.9 | 4.03 | 1.58 | 8.31 |  |  |  |  | 
7 | C[C@@H]1O[C@@H](O[C@@H]2O[C@@H](C(=O)CO)CC3=C2C(=O)c2cc4ccccc4c(O)c2C3=O)C[C@H](NC(=O)C(F)(F)F)[C@@H]1O [BCH-1182, (1 'S,1S,3R)-1,2,3,4,5,12-hexahydro-6-hydroxy-3-hydroxy-aceto-1-N-trifluoroacetyl-L-daunosamine-(2-oxo) naphthacene-5,12-dione] | 23.6 | 1.98 | 28.3 | 25.4 | 3.12 | 73.7 |  |  |  |  | 
8 | C=CC1CC2=C(C(=O)c3cc4ccccc4c(O)c3C2=O)C(O[C@H]2C[C@H](N)[C@H](O)[C@H](C)O2)O1 (stereo partly shown) [BCH-1611] | 1.89 | 4.3 | 2.16 | 2.81 | 3.87 | 7.32 |  |  |  |  | 
9 | CC[C@@H]1CC2=C(C(=O)c3cc4ccccc4c(O)c3C2=O)[C@@H](O[C@H]2C[C@H](N)[C@H](O)[C@H](C)O2)O1 [BCH-1614, (1'S,1R,3R)-5,12-dioxo-3-ethyl-6-hydroxy-1-(2',3',6'-trideoxy-3'-amino-4'-hydroxy-L-lyxohexopyranose)-3,4,5,12-tetrahydroanthraceno[2,3-c]pyran hydrochloride] |  |  |  |  | 1.64 |  | 3.58 | 1.02 | 1.09 | 0.742 | 1.67
10 | CC(=O)[C@@H]1CC2=C(C(=O)c3cc4ccccc4c(O)c3C2=O)[C@@H](O[C@H]2C[C@H](NC(=O)C(F)(F)F)[C@H](I)[C@H](C)O2)O1 [BCH-1617] | 2.15 | 3.04 | 2.43 | 1.2 | 1.38 | 2.96 |  |  |  |  | 
11 | CC(=O)[C@H]1CC2=C(C(=O)c3cc4ccccc4c(O)c3C2=O)[C@H](O[C@H]2C[C@H](NC(=O)C(F)(F)F)[C@H](I)[C@H](C)O2)O1 [BCH-1618] | 3.26 | 3.75 |  | 3.63 | .098 | 3.21 |  |  |  | 3.66 | 
12 | CC(=O)Nc1nc([C@@H]2CC3=C(C(=O)c4cc5ccccc5c(O)c4C3=O)[C@@H](O[C@H]3C[C@H](NC(=O)C(F)(F)F)[C@H](O)[C@H](C)O3)O2)cs1 [BCH-1623, (1'S,1R,3S)-6-hydroxy-1-(2',3',6'-trideoxy-3'-trifluoroacetamido-L-lyxohexopyranose)-3-(2-aza-3-acetamido-thienyl)-5,12-dioxo-3,4,5,12-tetrahydro-anthraceno-[2,3-c]-pyran] | 49.5 | 44.2 | 42.8 | 32.1 | 1.82 | 90.2 |  |  |  |  | 
13 | CC(=O)[C@@H]1Cc2c(O)c3c(c(O)c2[C@@H](O[C@H]2C[C@H](O)[C@H](O)[C@H](C)O2)O1)C(=O)c1ccccc1C3=O [BCH-1624] | 85 | 100 | 100 | 100 |  | 100 |  |  |  |  | 
14 | CC(=O)[C@H]1Cc2c(O)c3c(c(O)c2[C@H](O[C@H]2C[C@H](O)[C@H](O)[C@H](C)O2)O1)C(=O)c1ccccc1C3=O [BCH-1625] | 5.1 | 16 | 34 | 61 | 8.8 | 45 |  |  |  |  | 
15 | CC(=O)O[C@@H]1[C@H](C)O[C@@H](OC2OC(C(=O)CO)CC3=C2C(=O)c2cc4ccccc4c(O)c2C3=O)C[C@@H]1OC(C)=O (stereo partly shown) [BCH-1626] | 2.32 | 2.99 | 5.39 | 5.18 | 3.30 | 7.66 |  |  |  |  | 
16 | CC(=O)C1CC2=C(C(=O)c3cc4ccccc4c(O)c3C2=O)C(OCCNC(=O)OC(C)(C)C)S1 (stereo not shown) [BCH-1627] | 7.1 | 5 | 7.1 | 11 | 2.0 | 14 |  |  |  |  | 
17 | CC(=O)C1CC2=C(C(=O)c3cc4ccccc4c(O)c3C2=O)C(OCCN)S1 (stereo not shown) [BCH-1628] | 2.71 | 3.52 | 2.89 | 3.43 | 2.18 |  |  |  |  |  | 5.92
18 | CC[C@H]1CC2=C(C(=O)c3cc4ccccc4c(O)c3C2=O)[C@H](O[C@H]2C[C@H](O)[C@H](O)[C@H](C)O2)O1 [BCH-1629] | 6.7 | 7.4 | 9 | 22 | 2.8 |  |  |  |  |  | 19
19 | CC[C@@H]1CC2=C(C(=O)c3cc4ccccc4c(O)c3C2=O)[C@@H](O[C@H]2C[C@H](O)[C@H](O)[C@H](C)O2)O1 [BCH-1630] | 12 | 8.5 | 18 | 66 | 2.6 | 31 |  |  |  |  | 
20 | CC[C@H]1Cc2c(O)c3c(c(O)c2[C@H](O[C@H]2C[C@H](N)[C@H](O)[C@H](C)O2)O1)C(=O)c1ccccc1C3=O [BCH-1633] | 0.245 | 0.201 | 0.735 | 0.0995 | 1.92 | 0.47 |  |  |  |  | 
21 | CC(=O)C1CC2=C(C(=O)c3cc4ccccc4c(O)c3C2=O)C(O[C@H]2C[C@H](NC(=O)C(F)(F)F)[C@H](O)[C@H](C)O2)S1 (stereo partly shown) [BCH-1635] | 1.99 | 1 | 3.11 | 0.876 | 1.60 | 3.18 |  |  |  |  | 
22 | CC(=O)C1CC2=C(C(=O)c3cc4ccccc4c(O)c3C2=O)C(OC[C@H]2COC(C)(C)O2)S1 (stereo partly shown) [BCH-1636] | 2.65 | 1.23 | 2.97 | 2.53 | 1.71 | 4.52 |  |  |  |  | 
23 | CC(=O)C1CC2=C(C(=O)c3cc4ccccc4c(O)c3C2=O)C(O[C@H]2C[C@H](NC(=O)C(F)(F)F)[C@@H](O)[C@H](C)O2)O1 (stereo partly shown) [BCH-1637] | 2.28 | 2.07 |  | 0.691 | 1.68 | 3.82 |  |  |  | 5.24 | 
24 | CC(F)(F)C1CC2=C(CO1)C(=O)c1cc3ccccc3c(O)c1C2=O (stereo not shown) [BCH-1638, 3-(1',1'-difluoroethyl)-6 and 11-hydroxy-1,2,3,4-tetrahydro-(2-oxygen)-naphthacene-5,12-dione] | > 100 | > 100 | > 100 | > 100 |  | > 100 |  |  |  |  | 
25 | CC(F)(F)C1CC2=C(CO1)C(=O)c1c(cc3ccccc3c1O)C2=O (stereo not shown) [BCH-1639, 3-(1',1'-difluoroethyl)-6 and 11-hydroxy-1,2,3,4-tetrahydro-(2-oxygen)-naphthacene-5,12-dione] | > 100 | > 100 | > 100 | > 100 |  | > 100 |  |  |  |  | 
26 | CC(=O)[C@@H]1CC2=C(C(=O)c3cc4ccccc4c(O)c3C2=O)[C@@H](O[C@H]2C[C@H](NC(=O)C(F)(F)F)[C@H](O)[C@H](C)O2)S1 [BCH-1641] | 1.68 | 1.35 | 2 | 0.871 | 1.63 | 2.74 |  |  |  |  | 
27 | CC(=O)C1CC2=C(C(=O)c3cc4ccccc4c(O)c3C2=O)C(OC[C@H](O)CO)S1 (stereo partly shown) [BCH-1645] | 2.02 | 1.37 | 3.73 | 0.597 | 1.90 | 3.83 |  |  |  |  | 
28 | C[C@@H]1O[C@@H](O[C@H]2OCCC3=C2C(=O)c2cc4ccccc4c(O)c2C3=O)C[C@H](NC(=O)C(F)(F)F)[C@@H]1O [BCH-1646] |  | 2.96 | 2.81 |  | 1.31 | 6.56 | 5.92 | 4.99 |  |  | 
